What all share (test): Antibacterial spectrum (Minimum Inhibitory Concentration)
What all share (assay type): cell-based

Test [1] deals with Bacillus subtilis PCI 219. The source says: (§1) The antibacterial tests were done according to the method authorized by the Chemotherapeutic Society of Japan.
In test [2] the test system is E. coli ATCC 10536. As to conditions: Escherichia coli.
Text: as §1

Test [3] has as its system Escherichia coli NIHJ JC-2.
Text: as §1

In test [4] the test system is Klebsiella pneumoniae IFO 3512.
Text: as §1

Test [5] concerns Mycobacterium smegmatis IFO 3083. As to conditions: Mycolicibacterium smegmatis.
Text: as §1

For test [6], the system named is Pr. vulgaris XK Denken. As to conditions: Proteus vulgaris, read-out: Minimum Inhibitory Concentration.
Text: as §1

The test system of test [7] is Proteus vulgaris IFO 3167.
Text: as §1

The test system of test [8] is Ps. aeruginosa IFO 12689. As to conditions: Pseudomonas aeruginosa.
Text: as §1

Test [9] concerns Pseudomonas aeruginosa V-1.
Text: as §1

Test [10] has as its system Staphylococcus aureus 209P. As to conditions: read-out: Minimum Inhibitory Concentration.
Text: as §1

Test [11] deals with Ps. aeruginosa IID 1130. The conditions noted are these: Pseudomonas aeruginosa.
Text: as §1

For test [12], the system named is Ps. aeruginosa IID 1210. As to conditions: Pseudomonas aeruginosa.
Text: as §1

In test [13] the test system is Salmonella enteritidies IID 604.
Text: as §1

In test [14] the test system is Shigella sonnei IID 969. The conditions noted are these: IID969; Shigella sonnei IID 969, Gram -.
Text: as §1

Test [15] concerns Sta. aureus ATCC 14775. The conditions noted are these: Staphylococcus aureus.
Text: as §1

The mark [16] stands for this setting: PCI219, Bacillus subtilis PCI 219, Gram +, read-out: Minimum Inhibitory Concentration.
[17] abbreviates: ATCC10536, E. coli ATCC 10536, Gram -, read-out: Minimum Inhibitory Concentration.
The mark [18] stands for this setting: NIHJJC2, Escherichia coli NIHJ JC-2, Gram -, read-out: Minimum Inhibitory Concentration.
The mark [19] stands for this setting: IFO3512, Klebsiella pneumoniae IFO 3512, Gram -, read-out: Minimum Inhibitory Concentration.
Where [20] appears, read: IFO3083, Mycobacterium smegmatis IFO 3083, Gram +, read-out: Minimum Inhibitory Concentration.
The mark [21] stands for this setting: IFO3167, Proteus vulgaris IFO 3167, Gram -, read-out: Minimum Inhibitory Concentration.
[22] abbreviates: IFO12689, Ps. aeruginosa IFO 12689, Gram -, read-out: Minimum Inhibitory Concentration.
The mark [23] stands for this setting: V1, Pseudomonas aeruginosa V-1, Gram -, read-out: Minimum Inhibitory Concentration.
Where [24] appears, read: Staphylococcus aureus 209P, Gram +.
The mark [25] stands for this setting: ATCC10536, read-out: Minimum Inhibitory Concentration.
[26] abbreviates: Escherichia coli, NIHJJC2, read-out: Minimum Inhibitory Concentration.
Where [27] appears, read: Klebsiella pneumoniae, IFO3512, read-out: Minimum Inhibitory Concentration.

Values after ≈ are worked out from the molar mass of the structure shown. Where two headings read alike, the source gives them in different places.

Drawing on patent publication US4448962A, “Substituted quinoline carboxylic acid derivatives” (Kyorin Seiyaku Kabushiki Kaisha, priority 1978, dated 1984), this text covers MIC for four compounds.

For the compound `CCOC(=O)CN1CCN(c2cc3c(cc2Cl)c(=O)c(C(=O)O)cn3CC)CC1` [Example 13, 1-ethyl-6-chloro-7-(4-ethoxycarbonylmethyl-1-piperazinyl)-4-oxo-1,4-dihydroquinoline-3-carboxylic acid], the MIC in test [1] (setting [16]) worked out at 3.13 µg/mL (≈ 7.42 µM); in test [2] (setting [17]), 100 µg/mL (≈ 237 µM); in test [3] (setting [18]), 100 µg/mL (≈ 237 µM); in test [4] (setting [19]) it was 6.25 µg/mL (≈ 14.8 µM); in test [5] (setting [20]), 25 µg/mL (≈ 59.3 µM); in test [6] (Pr. vulgaris XK Denken, Gram -), 50 µg/mL (≈ 119 µM). Further, the MIC in [7] (setting [21]) was 100 µg/mL (≈ 237 µM); in test [8] (setting [22]), greater than 100 µg/mL; in test [9] (setting [23]), greater than 100 µg/mL; in [10] (setting [24]) it was greater than 100 µg/mL.

In the case of `CCn1cc(C(=O)O)c(=O)c2cc(Cl)c(N3CCN(CC(=O)O)CC3)cc21` [Example 14], the MIC in test [1] (setting [16]) was 50 µg/mL (≈ 127 µM); in test [2] (setting [17]), 12.5 µg/mL (≈ 31.7 µM); in test [3] (setting [18]) it was 12.5 µg/mL (≈ 31.7 µM); in test [4] (setting [19]), 12.5 µg/mL (≈ 31.7 µM); in test [5] (setting [20]), greater than 100 µg/mL; in test [6] (Pr. vulgaris XK Denken, Gram -), 12.5 µg/mL (≈ 31.7 µM). In addition, the MIC is 25 µg/mL (≈ 63.5 µM) in test [7] (setting [21]); greater than 100 µg/mL in test [8] (setting [22]); greater than 100 µg/mL in test [9] (setting [23]); 50 µg/mL (≈ 127 µM) in test [10] (Staphylococcus aureus, 209P).

For the compound `CCn1cc(C(=O)O)c(=O)c2ccc(C)nc21` [Nalidixic, nalidixic acid, reference compound], the MIC was 6.25 µg/mL (≈ 26.9 µM) in test [1] (Bacillus subtilis, PCI219, read-out: Minimum Inhibitory Concentration); 3.13 µg/mL (≈ 13.5 µM) in test [2] (setting [25]); 3.13 µg/mL (≈ 13.5 µM) in test [3] (setting [26]); 1.56 µg/mL (≈ 6.72 µM) in test [4] (setting [27]); greater than 100 µg/mL in test [5] (IFO3083, read-out: Minimum Inhibitory Concentration); 3.13 µg/mL (≈ 13.5 µM) in [6]. The MIC in test [7] (Proteus vulgaris, IFO3167, read-out: Minimum Inhibitory Concentration) is 3.13 µg/mL (≈ 13.5 µM); in test [8] (IFO12689, read-out: Minimum Inhibitory Concentration), greater than 200 µg/mL; in test [11] (IID1130, read-out: Minimum Inhibitory Concentration) it was greater than 200 µg/mL; in [12] (IID1210, read-out: Minimum Inhibitory Concentration) it was greater than 200 µg/mL; in [9] (Pseudomonas aeruginosa, V1, read-out: Minimum Inhibitory Concentration) it was 100 µg/mL (≈ 431 µM); in [13] (Salmonella, IID604, read-out: Minimum Inhibitory Concentration) it was 12.5 µg/mL (≈ 53.8 µM). The MIC in [14] was 1.56 µg/mL (≈ 6.72 µM); in test [15] (ATCC14775, read-out: Minimum Inhibitory Concentration) it was greater than 100 µg/mL; in test [10] (Staphylococcus aureus, 209P) it was 100 µg/mL (≈ 431 µM).

For the compound `CCn1cc(C(=O)O)c(=O)c2cnc(N3CCNCC3)nc21` [Pipemidic acid, reference compound], the MIC in test [1] (setting [16]) amounted to 6.25 µg/mL (≈ 20.6 µM); in [2] (setting [25]), 1.56 µg/mL (≈ 5.14 µM); in test [3] (setting [26]), 1.56 µg/mL (≈ 5.14 µM); in test [4] (setting [27]), 1.56 µg/mL (≈ 5.14 µM); in test [5] (setting [20]), 50 µg/mL (≈ 165 µM); in test [6] (Pr. vulgaris XK Denken, Gram -), 6.25 µg/mL (≈ 20.6 µM). The MIC in test [7] (setting [21]) came to 3.13 µg/mL (≈ 10.3 µM); in [8] (setting [22]), 25 µg/mL (≈ 82.4 µM); in [11] (IID1130, Ps. aeruginosa IID 1130, Gram -, read-out: Minimum Inhibitory Concentration), 25 µg/mL (≈ 82.4 µM); in test [12] (IID1210, Ps. aeruginosa IID 1210, Gram -, read-out: Minimum Inhibitory Concentration), 50 µg/mL (≈ 165 µM); in test [9] (setting [23]), 12.5 µg/mL (≈ 41.2 µM); in test [13] (IID604, Salmonella enteritidies IID 604, Gram -, read-out: Minimum Inhibitory Concentration), 12.5 µg/mL (≈ 41.2 µM). The MIC in [14] is 1.56 µg/mL (≈ 5.14 µM); in test [15] (ATCC14775, Sta. aureus ATCC 14775, Gram +, read-out: Minimum Inhibitory Concentration) it was 100 µg/mL (≈ 330 µM); in [10] (setting [24]) it was 25 µg/mL (≈ 82.4 µM).
